Drawing on the supplement of paper PMC10307832, this text covers relative viability for four compounds.

Each structure is given as a SMILES string.

Common to all, as to experiment: relative viability (nuclei count vs DMSO), 5 days (fraction); higher = more cells survive
In one test the test system is NCI-H2228. In short, it runs like this:
(§1)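 Five library-drug doses in √10 steps were combined with a fixed anchor-drug dose, or a single drug was given alone, by pin tool to lung cancer cell lines in 1536-well plates the day after seeding. Nuclei were stained and counted after 5 days. Relative viability is the nuclei count in treated wells over that in vehicle wells, taken as the median of duplicate plates.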

Another test relates to NCI-H1648. In short, it runs like this:
as §1

Another test has as its system ABC-1. Put shortly:
as §1

Another test relates to NCI-H2009. Put shortly:
as §1

Another test deals with EMC-BAC-2. Put shortly:
as §1

The next test relates to NCI-H1703. In short, it runs like this: as §1

As to `Cc1cn(-c2cc(NC(=O)c3ccc(C)c(Nc4nccc(-c5cccnc5)n4)c3)cc(C(F)(F)F)c2)cn1` [Nilotinib] + CC(=O)c1c(C)c2cnc(Nc3ccc(N4CCNCC4)cn3)nc2n(C2CCCC2)c1=O [Palbociclib] (partner 0.5 µM), the relative viability was found to be 0.677 in the test with NCI-H2228 (first compound 0.001 µM); 0.924 in the test with NCI-H2228 (first compound 0.003162 µM); 0.935 with NCI-H2228 (first compound 0.01 µM); 0.395 in the test with NCI-H2228 (first compound 0.03162 µM); 0.406 in the test with NCI-H2228 (first compound 0.1 µM); 0.244 with NCI-H1648 (first compound 0.001 µM). Besides, the relative viability with NCI-H1648 (first compound 0.003162 µM) turned out to be 0.319; in the test on NCI-H1648 (first compound 0.01 µM), 0.294; with NCI-H1648 (first compound 0.03162 µM), 0.254; in the test with NCI-H1648 (first compound 0.1 µM), 0.268; in the test with ABC-1 (first compound 0.001 µM), 0.634; in the test with ABC-1 (first compound 0.003162 µM) it was 0.697. For the same compound, the relative viability is 0.775 in the test on ABC-1 (first compound 0.01 µM); 0.699 in the test with ABC-1 (first compound 0.03162 µM); 0.466 in the test with ABC-1 (first compound 0.1 µM); 0.21 in the test with NCI-H2009 (first compound 0.001 µM); 0.191 with NCI-H2009 (first compound 0.003162 µM); 0.193 in the test with NCI-H2009 (first compound 0.01 µM). Also, the relative viability was found to be 0.211 in the test with NCI-H2009 (first compound 0.03162 µM); 0.191 with NCI-H2009 (first compound 0.1 µM); 0.477 in the test on EMC-BAC-2 (first compound 0.001 µM); 0.47 in the test with EMC-BAC-2 (first compound 0.003162 µM); 0.481 in the test with EMC-BAC-2 (first compound 0.01 µM); 0.487 with EMC-BAC-2 (first compound 0.03162 µM). This compound had a relative viability with EMC-BAC-2 (first compound 0.1 µM) of 0.526.
As to `Cc1cn(-c2cc(NC(=O)c3ccc(C)c(Nc4nccc(-c5cccnc5)n4)c3)cc(C(F)(F)F)c2)cn1` [Nilotinib] + NC(=O)Nc1cc(-c2cccc(F)c2)sc1C(=O)N[C@H]1CCCNC1 [AZD7762] (partner 0.2 µM), the relative viability stood at 0.561 in the test on NCI-H1648 (first compound 0.001 µM); 0.664 in the test on NCI-H1648 (first compound 0.003162 µM); 0.663 in the test on NCI-H1648 (first compound 0.01 µM); 0.569 in the test on NCI-H1648 (first compound 0.03162 µM); 0.65 with NCI-H1648 (first compound 0.1 µM); 0.667 in the test with ABC-1 (first compound 0.001 µM). Further, the relative viability was found to be 0.73 with ABC-1 (first compound 0.003162 µM); 0.803 with ABC-1 (first compound 0.01 µM); 0.787 in the test on ABC-1 (first compound 0.03162 µM); 0.387 in the test on ABC-1 (first compound 0.1 µM); 0.117 in the test on NCI-H1703 (first compound 0.001 µM); 0.121 in the test on NCI-H1703 (first compound 0.003162 µM). The relative viability in the test with NCI-H1703 (first compound 0.01 µM) was 0.11; with NCI-H1703 (first compound 0.03162 µM), 0.121; in the test on NCI-H1703 (first compound 0.1 µM), 0.117; with EMC-BAC-2 (first compound 0.001 µM) it was 1.05; in the test with EMC-BAC-2 (first compound 0.003162 µM) it was 1.02; with EMC-BAC-2 (first compound 0.01 µM), 1.14. Further, the relative viability worked out at 1.02 in the test on EMC-BAC-2 (first compound 0.03162 µM) and 1.03 with EMC-BAC-2 (first compound 0.1 µM).
As to `CN1CCN(CCOc2cc(OC3CCOCC3)c3c(Nc4c(Cl)ccc5c4OCO5)ncnc3c2)CC1` [Saracatinib] + CC(=O)Nc1cccc(-n2c(=O)n(C3CC3)c(=O)c3c(Nc4ccc(I)cc4F)n(C)c(=O)c(C)c32)c1 [Trametinib] (partner 0.02 µM), the relative viability in the test on NCI-H2228 (first compound 0.02 µM) was determined as 0.616; in the test on NCI-H2228 (first compound 0.2 µM) it was 0.425; in the test with NCI-H2228 (first compound 0.6325 µM), 0.703; in the test on NCI-H2228 (first compound 2 µM), 0.465; in the test on NCI-H1648 (first compound 0.02 µM), 0.436; with NCI-H1648 (first compound 0.2 µM) it was 0.47. Besides, the relative viability in the test on NCI-H1648 (first compound 0.6325 µM) was determined as 0.564; in the test with NCI-H1648 (first compound 2 µM), 0.357; in the test with NCI-H2009 (first compound 0.02 µM), 0.274; in the test with NCI-H2009 (first compound 0.2 µM), 0.207; in the test on NCI-H2009 (first compound 0.6325 µM), 0.209; in the test on NCI-H2009 (first compound 2 µM) it was 0.175. In addition, the relative viability in the test on EMC-BAC-2 (first compound 0.02 µM) was found to be 0.896; in the test with EMC-BAC-2 (first compound 0.2 µM), 0.97; in the test on EMC-BAC-2 (first compound 0.6325 µM), 1.11; in the test on EMC-BAC-2 (first compound 2 µM), 0.901.
With `CN1CCN(CCOc2cc(OC3CCOCC3)c3c(Nc4c(Cl)ccc5c4OCO5)ncnc3c2)CC1` [Saracatinib] + CC(=O)c1c(C)c2cnc(Nc3ccc(N4CCNCC4)cn3)nc2n(C2CCCC2)c1=O [Palbociclib] (partner 0.5 µM), the relative viability in the test on NCI-H2228 (first compound 0.02 µM) turned out to be 0.955; in the test with NCI-H2228 (first compound 0.2 µM) it was 0.649; in the test with NCI-H2228 (first compound 0.6325 µM), 0.805; in the test on NCI-H2228 (first compound 2 µM), 0.557; in the test on NCI-H1648 (first compound 0.02 µM) it was 0.252; with NCI-H1648 (first compound 0.2 µM), 0.291. The relative viability with NCI-H1648 (first compound 0.6325 µM) came to 0.304; in the test with NCI-H1648 (first compound 2 µM), 0.307; in the test on ABC-1 (first compound 0.02 µM) it was 0.624; in the test on ABC-1 (first compound 0.2 µM), 0.646; in the test on ABC-1 (first compound 0.6325 µM), 0.891; in the test with ABC-1 (first compound 2 µM), 0.622. Besides, the relative viability in the test with NCI-H2009 (first compound 0.02 µM) turned out to be 0.261; with NCI-H2009 (first compound 0.2 µM), 0.136; in the test on NCI-H2009 (first compound 0.6325 µM), 0.201; with NCI-H2009 (first compound 2 µM) it was 0.136; in the test with EMC-BAC-2 (first compound 0.02 µM), 0.507; in the test with EMC-BAC-2 (first compound 0.2 µM) it was 0.483. Also, the relative viability in the test on EMC-BAC-2 (first compound 0.6325 µM) worked out at 0.517; with EMC-BAC-2 (first compound 2 µM), 0.511.
